# Reference: ChEMBL document CHEMBL1153928, “Novel N-substituted 2-phenyl-1-sulfonylamino-cyclopropane carboxylates as selective ADAMTS-5 (Aggrecanase-2) inhibitors” (Bioorg Med Chem Lett, 2009)
# Activity calls are given as the source filed them. The rule behind the calls is not given here.
# How the values were obtained:
# [1] = target: T1, A disintegrin and metalloproteinase with thrombospondin motifs 5 (Homo sapiens) (UniProt Q9UNA0); test: Inhibition of recombinant aggrecanase 2 at 10 uM
# T1 sequence (whole entry): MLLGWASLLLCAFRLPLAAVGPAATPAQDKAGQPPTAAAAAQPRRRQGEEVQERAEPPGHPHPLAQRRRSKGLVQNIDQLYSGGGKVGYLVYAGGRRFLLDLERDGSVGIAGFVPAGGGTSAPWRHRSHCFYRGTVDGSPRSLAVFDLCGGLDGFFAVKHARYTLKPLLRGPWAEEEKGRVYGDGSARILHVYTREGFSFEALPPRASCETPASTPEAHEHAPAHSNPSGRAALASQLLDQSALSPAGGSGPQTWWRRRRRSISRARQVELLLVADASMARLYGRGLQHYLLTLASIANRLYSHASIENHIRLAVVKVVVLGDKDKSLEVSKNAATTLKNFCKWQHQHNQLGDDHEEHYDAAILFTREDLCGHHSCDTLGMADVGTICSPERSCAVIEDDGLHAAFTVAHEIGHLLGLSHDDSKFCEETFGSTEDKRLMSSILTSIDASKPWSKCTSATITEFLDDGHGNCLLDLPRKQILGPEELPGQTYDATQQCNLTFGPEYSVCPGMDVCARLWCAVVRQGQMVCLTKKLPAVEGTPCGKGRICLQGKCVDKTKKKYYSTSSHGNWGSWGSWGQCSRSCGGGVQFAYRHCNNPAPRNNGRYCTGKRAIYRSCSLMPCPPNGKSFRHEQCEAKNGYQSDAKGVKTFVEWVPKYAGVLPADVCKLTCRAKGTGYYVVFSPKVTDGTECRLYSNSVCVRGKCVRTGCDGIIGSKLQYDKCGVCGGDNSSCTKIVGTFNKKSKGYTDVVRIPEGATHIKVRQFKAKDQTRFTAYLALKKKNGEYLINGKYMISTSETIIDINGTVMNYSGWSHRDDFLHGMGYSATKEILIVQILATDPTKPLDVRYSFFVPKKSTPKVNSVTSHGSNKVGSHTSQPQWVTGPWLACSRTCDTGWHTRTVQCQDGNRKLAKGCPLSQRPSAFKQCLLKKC
# [2] = target: Disintegrin and metalloproteinase domain-containing protein 17 (Homo sapiens) (UniProt P78536); test: Inhibition of TACE at 10 uM
# [3] = target: T2, Interstitial collagenase (Homo sapiens) (UniProt P03956); test: Inhibition of MMP1 at 10 uM
# T2 sequence (whole entry): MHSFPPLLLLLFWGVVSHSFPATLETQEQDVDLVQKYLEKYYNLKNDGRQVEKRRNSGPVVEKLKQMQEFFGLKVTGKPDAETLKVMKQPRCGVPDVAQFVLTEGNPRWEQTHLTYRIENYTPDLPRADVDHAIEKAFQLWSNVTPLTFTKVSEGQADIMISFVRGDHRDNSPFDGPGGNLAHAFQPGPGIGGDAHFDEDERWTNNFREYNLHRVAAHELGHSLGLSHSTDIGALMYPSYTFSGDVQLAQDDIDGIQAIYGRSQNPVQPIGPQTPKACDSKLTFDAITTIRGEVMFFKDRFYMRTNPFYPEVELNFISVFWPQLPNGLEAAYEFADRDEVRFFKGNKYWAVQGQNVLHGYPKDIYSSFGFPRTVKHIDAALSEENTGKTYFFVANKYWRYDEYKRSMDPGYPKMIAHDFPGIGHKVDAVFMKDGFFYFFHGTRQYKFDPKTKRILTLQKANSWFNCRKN
# [4] = target: T3, A disintegrin and metalloproteinase with thrombospondin motifs 5 (Homo sapiens, UniProt Q9UNA0); test: Inhibition of recombinant aggrecanase 2
# T3 sequence (Q9UNA0 whole entry): T1 sequence (whole entry)
# Sequence of Disintegrin and metalloproteinase domain-containing protein 17 (Homo sapiens) (P78536 whole entry, the tested form may be a part): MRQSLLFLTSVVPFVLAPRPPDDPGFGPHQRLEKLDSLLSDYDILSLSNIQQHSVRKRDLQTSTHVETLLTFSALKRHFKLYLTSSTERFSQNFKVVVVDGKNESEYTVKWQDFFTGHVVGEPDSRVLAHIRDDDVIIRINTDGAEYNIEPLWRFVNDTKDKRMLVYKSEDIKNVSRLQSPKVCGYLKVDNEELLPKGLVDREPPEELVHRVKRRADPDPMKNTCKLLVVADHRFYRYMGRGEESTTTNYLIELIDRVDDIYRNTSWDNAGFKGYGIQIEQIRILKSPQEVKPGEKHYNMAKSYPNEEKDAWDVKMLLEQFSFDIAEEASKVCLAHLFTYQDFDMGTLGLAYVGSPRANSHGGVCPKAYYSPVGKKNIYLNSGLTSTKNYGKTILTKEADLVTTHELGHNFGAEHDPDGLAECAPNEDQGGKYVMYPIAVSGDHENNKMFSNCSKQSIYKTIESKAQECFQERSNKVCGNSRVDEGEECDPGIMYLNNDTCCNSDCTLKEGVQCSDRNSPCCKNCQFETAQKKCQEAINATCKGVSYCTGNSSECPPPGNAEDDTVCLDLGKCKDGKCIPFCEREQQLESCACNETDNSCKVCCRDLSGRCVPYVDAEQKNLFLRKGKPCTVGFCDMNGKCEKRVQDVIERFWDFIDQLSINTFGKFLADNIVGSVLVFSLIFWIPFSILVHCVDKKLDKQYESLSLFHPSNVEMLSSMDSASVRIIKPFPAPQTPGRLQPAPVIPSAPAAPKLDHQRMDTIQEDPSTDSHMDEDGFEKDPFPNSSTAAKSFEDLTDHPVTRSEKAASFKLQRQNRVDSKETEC
Structure (SMILES),inhibition [1],Activity [2],Activity [3],IC50 [4]
O=C1CCCN1CCN([C@]1(C(=O)O)C[C@H]1c1ccccc1)S(=O)(=O)c1ccc(-c2ccncc2)cc1,18%,–,–,–
O=C1CCCN1CCN([C@]1(C(=O)O)C[C@H]1c1ccccc1)S(=O)(=O)c1ccc(-c2ccc(Cl)cc2)cc1,–,inactive,inactive,200 nM
O=C(O)[C@@]1(N(CCc2ccncc2)S(=O)(=O)c2ccc(-c3ccc(Cl)cc3)cc2)C[C@H]1c1ccccc1,–,inactive,inactive,750 nM
CN([C@@H](Cc1ccccc1)C(=O)O)S(=O)(=O)c1ccc(-c2ccc(Cl)cc2)cc1,-0.12%,–,–,–
O=C1CCCN1CCN([C@]1(C(=O)O)C[C@H]1c1ccccc1)S(=O)(=O)N1CC=C(c2ccc(Cl)cc2)CC1,–,–,–,880 nM
O=C(O)[C@@]1(N(CCn2cncn2)S(=O)(=O)c2ccc(-c3ccc(Cl)cc3)cc2)C[C@H]1c1ccccc1,–,inactive,inactive,180 nM
O=C(O)[C@@H](Cc1ccccc1)N(Cc1ccccc1)S(=O)(=O)c1ccc(-c2ccc(Cl)cc2)cc1,30%,–,–,–
O=C(O)[C@@H](Cc1ccccc1)N(CCc1ccccc1)S(=O)(=O)c1ccc(-c2ccc(Cl)cc2)cc1,–,–,–,7300 nM
O=C1CCCN1CCN([C@]1(C(=O)O)C[C@H]1c1ccccc1)S(=O)(=O)c1ccc(-c2ccc(Cl)cc2)nc1,–,–,–,1100 nM
CN(C)c1ccc(-c2ccc(S(=O)(=O)N(CCN3CCCC3=O)[C@]3(C(=O)O)C[C@H]3c3ccccc3)cc2)cc1,–,–,–,6600 nM
CC(=O)Nc1ccc(-c2ccc(S(=O)(=O)N(CCN3CCCC3=O)[C@]3(C(=O)O)C[C@H]3c3ccccc3)cc2)cc1,–,–,–,4500 nM
CN([C@H](Cc1ccccc1)C(=O)O)S(=O)(=O)c1ccc(-c2ccc(Cl)cc2)cc1,–,–,–,8000 nM
O=C1CCCN1CCN([C@]1(C(=O)O)C[C@H]1c1ccccc1)S(=O)(=O)c1ccc(C#CCO)cc1,-1.5%,–,–,–
O=C(O)[C@@H](Cc1ccccc1)N(CCN1CCCC1=O)S(=O)(=O)c1ccc(-c2ccc(Cl)cc2)cc1,–,–,–,1600 nM
O=C(O)[C@@]1(N(CCn2ccnc2)S(=O)(=O)c2ccc(-c3ccc(Cl)cc3)cc2)C[C@H]1c1ccccc1,–,inactive,inactive,320 nM
C[C@@](Cc1ccccc1)(C(=O)O)N(CCN1CCCC1=O)S(=O)(=O)c1ccc(-c2ccc(Cl)cc2)cc1,0.1%,–,–,–
O=C(O)[C@@]1(N(CCc2cccnc2)S(=O)(=O)c2ccc(-c3ccc(Cl)cc3)cc2)C[C@H]1c1ccccc1,–,inactive,inactive,290 nM
O=C(O)[C@@]1(N(CCc2ccccn2)S(=O)(=O)c2ccc(-c3ccc(Cl)cc3)cc2)C[C@H]1c1ccccc1,–,inactive,inactive,820 nM

Structure (SMILES),inhibition [1],Activity [2],Activity [3],IC50 [4]
COCC#Cc1ccc(S(=O)(=O)N(CCN2CCCC2=O)[C@]2(C(=O)O)C[C@H]2c2ccccc2)cc1,2.9%,–,–,–
O=C(O)[C@@H](Cc1ccccc1)NS(=O)(=O)c1ccc(-c2ccc(Cl)cc2)cc1,–,–,–,3200 nM
O=C1OCCN1CCN([C@]1(C(=O)O)C[C@H]1c1ccccc1)S(=O)(=O)c1ccc(-c2ccc(Cl)cc2)cc1,–,inactive,inactive,220 nM
O=C(O)[C@@]1(N(CCn2nccn2)S(=O)(=O)c2ccc(-c3ccc(Cl)cc3)cc2)C[C@H]1c1ccccc1,–,inactive,inactive,260 nM
O=C(O)[C@@]1(N(CCn2ccnn2)S(=O)(=O)c2ccc(-c3ccc(Cl)cc3)cc2)C[C@H]1c1ccccc1,–,inactive,inactive,270 nM
O=C(O)[C@@]1(N(CCn2cnc3cncnc32)S(=O)(=O)c2ccc(-c3ccc(Cl)cc3)cc2)C[C@H]1c1ccccc1,–,inactive,inactive,170 nM
COc1cccn(CCN([C@]2(C(=O)O)C[C@H]2c2ccccc2)S(=O)(=O)c2ccc(-c3ccc(Cl)cc3)cc2)c1=O,–,inactive,inactive,78 nM
O=C1CCCCN1CCN([C@]1(C(=O)O)C[C@H]1c1ccccc1)S(=O)(=O)c1ccc(-c2ccc(Cl)cc2)cc1,–,inactive,inactive,210 nM
O=C(O)[C@@]1(N(CCn2cnnn2)S(=O)(=O)c2ccc(-c3ccc(Cl)cc3)cc2)C[C@H]1c1ccccc1,–,inactive,inactive,270 nM
COC(=O)c1cn(CCN([C@]2(C(=O)O)C[C@H]2c2ccccc2)S(=O)(=O)c2ccc(-c3ccc(Cl)cc3)cc2)cn1,–,inactive,inactive,73 nM
O=C1CCC(=O)N1CCN([C@]1(C(=O)O)C[C@H]1c1ccccc1)S(=O)(=O)c1ccc(-c2ccc(Cl)cc2)cc1,–,inactive,inactive,310 nM
O=C1OCCCN1CCN([C@]1(C(=O)O)C[C@H]1c1ccccc1)S(=O)(=O)c1ccc(-c2ccc(Cl)cc2)cc1,–,inactive,inactive,180 nM
O=C(O)[C@@H](Cc1ccccc1)N(CC1CC1)S(=O)(=O)c1ccc(-c2ccc(Cl)cc2)cc1,46%,–,–,–
O=C(O)[C@@H](Cc1ccccc1)N(CC1CCCCC1)S(=O)(=O)c1ccc(-c2ccc(Cl)cc2)cc1,22%,–,–,–
COC(=O)c1cncn1CCN([C@]1(C(=O)O)C[C@H]1c1ccccc1)S(=O)(=O)c1ccc(-c2ccc(Cl)cc2)cc1,–,inactive,inactive,230 nM
O=C(O)[C@@]1(N(CCn2cnc3ncncc32)S(=O)(=O)c2ccc(-c3ccc(Cl)cc3)cc2)C[C@H]1c1ccccc1,–,inactive,inactive,71 nM
O=C(O)[C@@]1(N(CCn2cnnc2)S(=O)(=O)c2ccc(-c3ccc(Cl)cc3)cc2)C[C@H]1c1ccccc1,–,inactive,inactive,190 nM
